Test results: patent US10308643B2, “Heterocyclic compound” (Takeda Pharmaceutical Company Limited, priority 2015, dated 2019)

How the values were obtained:
Format in all cases: biochemical
[1] = target: T1, HDAC6 enzyme (Homo sapiens, UniProt Q9UBN7); assay: HDAC1/6 Enzyme Inhibitory Assay (HDAC-Glo I/II Assay kit), HDAC6; conditions: 1 μM test compound, wells without enzyme = 100% inhibition; for inhibition at 1 µM: read-out: HDAC6 inhibitory rate (%) (1 μM)
T1 construct: transducing full length HDAC1 and HDAC6 genes into Sf-9 insect cells; GST; purchased SignalChem; host or cells: Sf-9 insect cells
T1 sequence (Q9UBN7 1-1215): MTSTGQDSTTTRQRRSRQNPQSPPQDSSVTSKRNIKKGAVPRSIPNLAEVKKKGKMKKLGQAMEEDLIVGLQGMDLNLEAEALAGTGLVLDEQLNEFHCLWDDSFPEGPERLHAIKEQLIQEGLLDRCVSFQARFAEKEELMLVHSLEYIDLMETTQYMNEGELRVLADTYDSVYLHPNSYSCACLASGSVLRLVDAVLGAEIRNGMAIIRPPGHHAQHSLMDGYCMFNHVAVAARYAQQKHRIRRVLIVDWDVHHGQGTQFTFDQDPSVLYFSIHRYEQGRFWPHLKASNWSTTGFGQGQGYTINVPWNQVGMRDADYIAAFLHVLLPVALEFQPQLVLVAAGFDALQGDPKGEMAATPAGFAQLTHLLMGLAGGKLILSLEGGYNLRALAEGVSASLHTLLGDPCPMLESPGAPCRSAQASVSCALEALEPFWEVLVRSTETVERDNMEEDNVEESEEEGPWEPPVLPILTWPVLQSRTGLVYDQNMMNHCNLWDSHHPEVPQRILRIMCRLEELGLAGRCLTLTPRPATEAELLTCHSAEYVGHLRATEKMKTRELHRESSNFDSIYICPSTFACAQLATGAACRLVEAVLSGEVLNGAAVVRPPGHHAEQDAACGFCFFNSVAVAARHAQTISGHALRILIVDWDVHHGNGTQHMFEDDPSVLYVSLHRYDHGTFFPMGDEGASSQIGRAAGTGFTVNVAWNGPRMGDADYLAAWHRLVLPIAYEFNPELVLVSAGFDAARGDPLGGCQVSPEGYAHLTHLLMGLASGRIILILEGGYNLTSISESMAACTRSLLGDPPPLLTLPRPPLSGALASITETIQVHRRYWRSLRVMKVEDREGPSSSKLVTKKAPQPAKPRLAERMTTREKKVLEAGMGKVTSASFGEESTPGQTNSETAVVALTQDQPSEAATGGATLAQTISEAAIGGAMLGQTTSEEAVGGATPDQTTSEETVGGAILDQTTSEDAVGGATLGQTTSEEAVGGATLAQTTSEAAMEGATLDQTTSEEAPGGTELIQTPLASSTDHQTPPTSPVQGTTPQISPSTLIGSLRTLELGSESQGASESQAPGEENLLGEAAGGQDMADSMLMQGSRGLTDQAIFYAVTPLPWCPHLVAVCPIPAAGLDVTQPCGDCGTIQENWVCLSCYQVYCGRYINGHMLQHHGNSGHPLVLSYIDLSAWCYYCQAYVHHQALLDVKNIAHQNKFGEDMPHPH
Procedure, shortened: (§1)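 Enzyme source: full-length HDAC1/HDAC6, Sf-9, GST-purified. Assay buffer 24 mM Tris-HCl (pH 7.5), 1 mM MgCl2, 0.35 mM KCl, 135 mM NaCl. Compound–enzyme 60 min RT, then HDAC-Glo reagent 20 min RT, luminescence; inhibition relative to no-enzyme control.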

[2] = target: T2, HDAC1 enzyme (Homo sapiens, UniProt Q13547); assay: HDAC1/6 Enzyme Inhibitory Assay (HDAC-Glo I/II Assay kit), HDAC1; conditions: 1 μM test compound, wells without enzyme = 100% inhibition; for inhibition at 1 µM: read-out: HDAC1 inhibitory rate (%) (1 μM)
T2 construct: transducing full length HDAC1 and HDAC6 genes into Sf-9 insect cells; GST; purchased SignalChem; host or cells: Sf-9 insect cells
Procedure, shortened: as §1

[3] = target: T3, HDAC9 enzyme (Homo sapiens, UniProt Q9UKV0); assay: HDAC9 Enzyme Inhibitory Assay (HDAC-Glo class IIa); conditions: 1 μM test compound, wells without enzyme = 100% inhibition; for inhibition at 1 µM: read-out: HDAC9 inhibitory rate (%) (1 μM)
T3 construct: transducing full length HDAC9 gene into Sf-9 insect cells; made in house; host or cells: Sf-9 insect cells
Procedure, shortened: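 Luminescent HDAC-Glo class IIa readout after a 20 min room-temperature reaction; relative inhibition referenced to enzyme-free wells as 100%. Test compound first preincubated 60 min with Sf-9-expressed, Ni-NTA-purified full-length HDAC9 in pH 7.5 Tris buffer containing 135 mM NaCl, 0.6 mM glutathione and 0.01% Tween-20.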

T2 sequence (Q13547 whole entry): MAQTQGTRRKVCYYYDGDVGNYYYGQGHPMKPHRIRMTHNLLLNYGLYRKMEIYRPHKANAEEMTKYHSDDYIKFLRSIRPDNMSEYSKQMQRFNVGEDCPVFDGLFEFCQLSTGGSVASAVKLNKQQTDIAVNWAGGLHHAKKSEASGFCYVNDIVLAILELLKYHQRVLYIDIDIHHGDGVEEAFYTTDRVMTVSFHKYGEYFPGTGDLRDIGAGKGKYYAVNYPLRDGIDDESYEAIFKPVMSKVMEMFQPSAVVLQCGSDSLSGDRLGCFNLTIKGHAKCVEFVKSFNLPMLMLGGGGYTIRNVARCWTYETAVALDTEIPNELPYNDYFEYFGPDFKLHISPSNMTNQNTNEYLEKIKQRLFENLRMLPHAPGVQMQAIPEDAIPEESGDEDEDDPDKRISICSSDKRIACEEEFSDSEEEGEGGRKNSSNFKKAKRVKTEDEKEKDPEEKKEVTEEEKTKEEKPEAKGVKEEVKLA
T3 sequence (Q9UKV0 whole entry, species assumed): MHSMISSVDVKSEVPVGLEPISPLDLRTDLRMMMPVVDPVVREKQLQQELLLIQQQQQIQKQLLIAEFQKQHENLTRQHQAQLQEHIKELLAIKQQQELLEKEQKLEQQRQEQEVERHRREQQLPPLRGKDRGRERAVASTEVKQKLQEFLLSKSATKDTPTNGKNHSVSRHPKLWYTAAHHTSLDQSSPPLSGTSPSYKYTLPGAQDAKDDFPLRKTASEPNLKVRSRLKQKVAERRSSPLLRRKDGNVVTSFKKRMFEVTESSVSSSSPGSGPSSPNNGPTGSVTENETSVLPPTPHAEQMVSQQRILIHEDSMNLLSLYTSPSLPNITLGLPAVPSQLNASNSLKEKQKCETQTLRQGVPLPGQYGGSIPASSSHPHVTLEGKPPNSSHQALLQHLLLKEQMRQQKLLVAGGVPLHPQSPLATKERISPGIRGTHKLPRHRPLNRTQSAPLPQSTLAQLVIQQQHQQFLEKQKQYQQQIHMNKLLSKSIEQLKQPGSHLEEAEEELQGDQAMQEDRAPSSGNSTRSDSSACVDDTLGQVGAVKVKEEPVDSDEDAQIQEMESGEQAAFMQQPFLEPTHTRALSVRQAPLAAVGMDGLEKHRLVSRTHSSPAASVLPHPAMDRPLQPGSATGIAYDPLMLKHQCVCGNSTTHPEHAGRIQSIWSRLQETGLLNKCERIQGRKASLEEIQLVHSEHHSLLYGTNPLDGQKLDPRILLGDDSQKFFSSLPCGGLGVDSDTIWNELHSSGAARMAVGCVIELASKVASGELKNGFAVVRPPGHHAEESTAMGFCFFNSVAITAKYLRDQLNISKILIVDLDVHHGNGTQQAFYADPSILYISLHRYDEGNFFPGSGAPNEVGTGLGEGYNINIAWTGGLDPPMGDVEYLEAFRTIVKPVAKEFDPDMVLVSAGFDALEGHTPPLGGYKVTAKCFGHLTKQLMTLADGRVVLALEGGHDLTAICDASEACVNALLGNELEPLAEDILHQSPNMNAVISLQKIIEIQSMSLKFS

SMILES | inhibition at 1 µM [1] | inhibition at 1 µM [2] | inhibition at 1 µM [3] | HDAC6 inhibitory rate (%) (1 μM) ([1]; 1 µM) | HDAC1 inhibitory rate (%) (1 μM) ([2]; 1 µM) | HDAC9 inhibitory rate (%) (1 μM) ([3]; 1 µM)
CC1(C(=O)N[C@@H]2CCC(F)(F)C[C@H]2N2Cc3ccc(-c4noc(C(F)(F)F)n4)cc3C2=O)COC1 [Example 87, N-((1R,2R)-4,4-difluoro-2-(1-oxo-6-(5-(trifluoromethyl)-1,2,4-oxadiazol-3-yl)-1,3-dihydro-2H-isoindol-2-yl)cyclohexyl)-3-methyloxetane-3-carboxamide] | 99% | 1% | 45% | – | – | –
CCNC(=O)N1CC[C@@H](N2Cc3ccc(-c4noc(C(F)(F)F)n4)cc3C2=O)[C@H](c2ccccc2)C1 [Example 44, (3R,4R)-N-ethyl-4-(1-oxo-6-(5-(trifluoromethyl)-1,2,4-oxadiazol-3-yl)-1,3-dihydro-2H-isoindol-2-yl)-3-phenylpiperidine-1-carboxamide] | 98% | 88% | 95% | – | – | –
O=C1C[C@H](C(=O)N[C@@H]2CCCC[C@H]2N2Cc3ccc(-c4noc(C(F)(F)F)n4)cc3C2=O)CN1 [Example 130, (3S)-5-oxo-N-((1R,2R)-2-(1-oxo-6-(5-(trifluoromethyl)-1,2,4-oxadiazol-3-yl)-1,3-dihydro-2H-isoindol-2-yl)cyclohexyl)pyrrolidine-3-carboxamide] | 86% | 0% | 30% | – | – | –
N#CC12CC(C(=O)N[C@@H]3CCCC[C@H]3N3Cc4ccc(-c5noc(C(F)(F)F)n5)cc4C3=O)(C1)C2 [Example 160, 3-cyano-N-((1R,2R)-2-(1-oxo-6-(5-(trifluoromethyl)-1,2,4-oxadiazol-3-yl)-1,3-dihydro-2H-isoindol-2-yl)cyclohexyl)bicyclo[1.1.1]pentane-1-carboxamide] | 99% | 11% | 38% | – | – | –
O=C1c2ccc(-c3noc(C(F)(F)F)n3)cc2CN1[C@@H]1CNCC[C@H]1c1ccccc1 (relative stereo) [Example 72, trans-2-(4-phenylpiperidin-3-yl)-5-(5-(trifluoromethyl)-1,2,4-oxadiazol-3-yl)isoindolin-1-one] | 90% | 32% | 80% | – | – | –
CC(=O)N1CC[C@@H](N2Cc3ccc(-c4noc(C(F)(F)F)n4)cc3C2=O)[C@@H](c2ccccc2)C1 [Example 23, 2-((3S,4R)-1-acetyl-3-phenylpiperidin-4-yl)-6-(5-(trifluoromethyl)-1,2,4-oxadiazol-3-yl)isoindolin-1-one] | 98% | 58% | 84% | – | – | –
CC(C)(C#N)C(=O)N[C@@H]1CCCC[C@H]1N1Cc2ccc(-c3noc(C(F)(F)F)n3)cc2C1=O [Example 100, 2-cyano-2-methyl-N-((1R,2R)-2-(1-oxo-6-(5-(trifluoromethyl)-1,2,4-oxadiazol-3-yl)-1,3-dihydro-2H-isoindol-2-yl)cyclohexyl)propanamide] | 100% | 9% | 73% | – | – | –

More lines, now with the values ahead:

inhibition at 1 µM [1] | inhibition at 1 µM [2] | inhibition at 1 µM [3] | HDAC6 inhibitory rate (%) (1 μM) ([1]; 1 µM) | HDAC1 inhibitory rate (%) (1 μM) ([2]; 1 µM) | HDAC9 inhibitory rate (%) (1 μM) ([3]; 1 µM) | SMILES
98% | 4% | 45% | – | – | – | O=C(N[C@@H]1CCCC[C@H]1N1Cc2ccc(-c3noc(C(F)(F)F)n3)cc2C1=O)C1CCOC1 (stereo partly drawn) [Example 116, N-((1R,2R)-2-(1-oxo-6-(5-(trifluoromethyl)-1,2,4-oxadiazol-3-yl)-1,3-dihydro-2H-isoindol-2-yl)cyclohexyl)tetrahydrofuran-3-carboxamide]
100% | 3% | 26% | – | – | – | CC1(C(=O)N[C@@H]2CCCC[C@H]2N2Cc3ccc(-c4noc(C(F)(F)F)n4)cc3C2=O)CNC1 [Example 194, 3-methyl-N-((1R,2R)-2-(1-oxo-6-(5-(trifluoromethyl)-1,2,4-oxadiazol-3-yl)-1,3-dihydro-2H-isoindol-2-yl)cyclohexyl)azetidine-3-carboxamide]
96% | 6% | 43% | – | – | – | O=C(NC1COC1)N[C@@H]1CCCC[C@H]1N1Cc2ccc(-c3noc(C(F)(F)F)n3)cc2C1=O [Example 165, 1-oxetan-3-yl-3-((1R,2R)-2-(1-oxo-6-(5-(trifluoromethyl)-1,2,4-oxadiazol-3-yl)-1,3-dihydro-2H-isoindol-2-yl)cyclohexyl)urea]
97% | 2% | 55% | – | – | – | CCC1(C(=O)N[C@@H]2CCCC[C@H]2N2Cc3ccc(-c4noc(C(F)(F)F)n4)cc3C2=O)COC1 [Example 138, 3-ethyl-N-((1R,2R)-2-(1-oxo-6-(5-(trifluoromethyl)-1,2,4-oxadiazol-3-yl)-1,3-dihydro-2H-isoindol-2-yl)cyclohexyl)oxetane-3-carboxamide]
– | – | – | 98% | 10% | 71% | O=C1CCCN1[C@@H]1CCOC[C@H]1N1Cc2ccc(-c3noc(C(F)(F)F)n3)cc2C1=O [Example 182, 2-((3S,4R)-4-(2-oxopyrrolidin-1-yl)tetrahydro-2H-pyran-3-yl)-6-(5-(trifluoromethyl)-1,2,4-oxadiazol-3-yl)isoindolin-1-one]
97% | 6% | 67% | – | – | – | N#CC1(C(=O)N[C@@H]2CCCC[C@H]2N2Cc3ccc(-c4noc(C(F)(F)F)n4)cc3C2=O)CC1 [Example 122, 1-cyano-N-((1R,2R)-2-(1-oxo-6-(5-(trifluoromethyl)-1,2,4-oxadiazol-3-yl)-1,3-dihydro-2H-isoindol-2-yl)cyclohexyl) cyclopropanecarboxamide]
100% | 11% | 54% | – | – | – | O=C(NC1CC1)N[C@@H]1CCCC[C@H]1N1Cc2ccc(-c3noc(C(F)(F)F)n3)cc2C1=O [Example 154, 1-cyclopropyl-3-((1R,2R)-2-(1-oxo-6-(5-(trifluoromethyl)-1,2,4-oxadiazol-3-yl)-1,3-dihydro-2H-isoindol-2-yl)cyclohexyl)urea]
44% | 5% | 29% | – | – | – | O=C(N[C@H]1CCCC[C@@H]1N1Cc2ccc(-c3noc(C(F)(F)F)n3)cc2C1=O)[C@H]1CCCO1 [Example 218, (2R)-N-((1S,2S)-2-(1-oxo-6-(5-(trifluoromethyl)-1,2,4-oxadiazol-3-yl)-1,3-dihydro-2H-isoindol-2-yl)cyclohexyl)tetrahydrofuran-2-carboxamide]
-4% | -1% | 52% | – | – | – | N[C@H]1CCC[C@@H]1N1Cc2ccc(-c3noc(C(F)(F)F)n3)cc2C1=O [Example 143, 2-((1S,2S)-2-aminocyclopentyl)-6-(5-(trifluoromethyl)-1,2,4-oxadiazol-3-yl)isoindolin-1-one]
100% | 9% | 45% | – | – | – | O=C(N[C@@H]1CCCC[C@H]1N1Cc2ccc(-c3noc(C(F)(F)F)n3)cc2C1=O)[C@H]1CCCO1 [Example 129, (2R)-N-((1R,2R)-2-(1-oxo-6-(5-(trifluoromethyl)-1,2,4-oxadiazol-3-yl)-1,3-dihydro-2H-isoindol-2-yl)cyclohexyl)tetrahydrofuran-2-carboxamide]
